Results taken from patent US12661362B2, “Methods for the prevention and treatment of hearing loss” (Ting Therapeutics LLC, priority 2020, dated 2026).

Tested on: A549
Assay: Survival of A549 cells with or without Cisplatin and Niclosamide
Format: cell-based
Conditions: 10 nM
Experimental: Now referring to FIG. 8, In vitro model of […] incubated with or without Cisplatin and 10 nM of Niclosamide. Cells were maintained in culture with the aid of Matrigel as previously described in Kelley and Driver, Curr. Protoc. Neurosci. Ch.(4); Unit(4); 34.1-10 (2010). After cells had been in culture for 1 d, growth medium DMEM (12430-054; GIB CO Life Technologies, with 1% FBS [16000-044; GIB CO Life Technologies] and 50 μg/ml ampicillin) with or without test compounds may be added for preincubation for 1 hr. at 37° C. in 5% Co2, and may be followed by incubation with 50 μM Cisplatin (479306; Sigma-Aldrich) with or without the test compound in growth medium for 24 hr. at 37° C. A Cisplatin concentration of 50 μM may be used for the explant assay due to its consistent showing of decreases outer hair cells by about −40% in the mouse cochlea after 24 hours. Cochlea may be fixed in 4% PFA and stained for actin with Alex Fluor 568 phalloidin to determine the viability of the HCs. Cochlea may also be stained by DAPI, FM1-43 dye uptake, and immunohistochemical staining for known HC markers (including parvalbumin and myosin 7a. Cochlea may be imaged by confocal microscopy. Two 160-μm regions from middle turns may be photographed, and the number of intact HCs can be counted.

O=C(Nc1ccc([N+](=O)[O-])cc1Cl)c1cc(Cl)ccc1O [Niclosamide, 5-chloro-N-(2-chloro-4-nitrophenyl)-2-hydroxy-benzamide]
effect on Cisplatin-tumor killing activity: did not affect Cisplatin-tumor killing activity
